Measured values: ChEMBL document CHEMBL1201862, “PubChem BioAssay data set” (2004)
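A five-concentration, 48-hour dose response in 96-well plates underlies each endpoint, interpolated linearly between surrounding concentrations. The concentration for 50% growth inhibition is given as GI50.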 Activity calls are given as the source filed them. Cut-off read from the data, not from the text of the source: active = GI50 up to about 1.1 µM and inactive = higher.

Assays:
Experiment in all cases: NCI tumour cell line growth inhibition, 48 h
[1] = tested on: HOP-62
[2] = tested on: OVCAR-3
[3] = tested on: NCI-H522
[4] = tested on: HT-29
[5] = tested on: 786-0
[6] = tested on: TK-10
[7] = tested on: KM12
[8] = tested on: RXF 393
[9] = tested on: A549
[10] = tested on: NCI/ADR-RES
[11] = tested on: SW-620
[12] = tested on: SK-MEL-2
[13] = tested on: PC-3
[14] = tested on: RPMI-8226
[15] = tested on: HCT-116
[16] = tested on: HL-60
[17] = tested on: K562
[18] = tested on: NCI-H460
[19] = tested on: SK-OV-3

Measured: GI50

O=C(NCCCN1CCN(CCCNC(=O)Nc2cccc3ccccc23)CC1)Nc1cccc2ccccc12
inactive: [1] 11.7 µM | [2] 13.6 µM | [3] 15.8 µM | [4] 16.8 µM | [5] 18.9 µM | [6] 14 µM | [7] 19.3 µM | [8] 11.1 µM | [9] 17.7 µM | [10] 84.9 µM | [11] 8.32 µM | [12] 18.7 µM | [13] 9.93 µM | [14] 17.3 µM | [15] 14.4 µM | [16] 16.3 µM | [17] 19.9 µM

COc1ccc(N2C(=O)C3ON(Cc4ccc(CC(N)=O)cc4)C(c4c5ccccc5c(C)c5ccccc45)C3C2=O)cc1 (stereo unspecified)
inactive: [1] 40.4 µM | [2] 25.4 µM | [3] 20 µM | [4] 12.9 µM | [5] 30 µM | [18] 13.6 µM | [6] 17.8 µM | [7] 12.1 µM | [8] 14.2 µM | [19] > 100 µM | [9] 29.8 µM | [10] 35.8 µM | [11] 25.9 µM | [12] 20.1 µM | [13] 21.6 µM | [15] 17.9 µM | [16] 14.9 µM | [17] 3.27 µM

C/C=N\n1c(C)c(C#N)c(C#N)c1N
inactive: [1] > 100 µM | [2] > 100 µM | [3] > 100 µM | [4] > 100 µM | [5] > 100 µM | [6] > 100 µM | [7] > 100 µM | [8] > 100 µM | [19] > 100 µM | [9] 34.5 µM | [10] > 100 µM | [11] > 100 µM | [12] > 100 µM | [13] > 100 µM | [14] > 100 µM | [15] > 100 µM | [16] > 100 µM | [17] > 100 µM

C[C@]12CC[C@H](O)CC1=CC[C@@H]1[C@@H]2CC[C@]2(C)C(=N/N)/C(=N\O)C[C@@H]12
inactive: [1] 45.9 µM | [2] > 100 µM | [3] 31.7 µM | [4] 36 µM | [5] 50.7 µM | [6] > 100 µM | [7] 38.2 µM | [8] > 100 µM | [19] 76 µM | [9] > 100 µM | [10] > 100 µM | [11] 60 µM | [12] 88.5 µM | [13] > 100 µM | [14] > 100 µM | [15] 43.4 µM | [16] 9.91 µM | [17] 14.5 µM
